Here are results for twelve compounds from article PMC11423540, “Synthesis and biological evaluation of ortho-phenyl phenylhydroxamic acids containing phenothiazine with improved selectivity for class IIa histone deacetylases” (Journal of Enzyme Inhibition and Medicinal Chemistry, 2024).

One data set deals with SCC2095 cells. The data set is described as follows: Cell viability (MTT) assay, SCC2095. The format is cell-based. Particulars: 48 h, human oral cancer cells, read-out: IC50 of cytotoxicity SCC2095. Here is the method: Human breast cancer MDA-MB-231 cells and gastric cancer SCM-1 cells were purchased from the American Type Culture Collection (Manasas, VA, USA). SCC2095 human oral cancer cells were kindly provided by Professor Susan R. Mallery (The Ohio State University).
To assess cell viability, cells were seeded in three replicates into 96-well plates at a density of 5×10^3/well for 24 h following incubation with compounds at the indicated concentrations. Then, cell viability was assessed with 3–(4,5-dimethylthiazol-2-yl)-2,5-diphenyltetrazolium bromide (MTT) solution (0.5 mg/mL) for 4h as described previously. After removing the medium, 200 µL of DMSO was added, and then the absorbance was measured at 570 nm using a plate reader (BMG LABTECH, Germany).

The target in the next data set is HDAC4 (Homo sapiens, UniProt P56524). The data set is described as follows: HDAC inhibition assay, HDAC4.
The next data set deals with T1, HDAC7 (Homo sapiens, UniProt Q8WUI4).
T1 sequence (Q8WUI4 1-952): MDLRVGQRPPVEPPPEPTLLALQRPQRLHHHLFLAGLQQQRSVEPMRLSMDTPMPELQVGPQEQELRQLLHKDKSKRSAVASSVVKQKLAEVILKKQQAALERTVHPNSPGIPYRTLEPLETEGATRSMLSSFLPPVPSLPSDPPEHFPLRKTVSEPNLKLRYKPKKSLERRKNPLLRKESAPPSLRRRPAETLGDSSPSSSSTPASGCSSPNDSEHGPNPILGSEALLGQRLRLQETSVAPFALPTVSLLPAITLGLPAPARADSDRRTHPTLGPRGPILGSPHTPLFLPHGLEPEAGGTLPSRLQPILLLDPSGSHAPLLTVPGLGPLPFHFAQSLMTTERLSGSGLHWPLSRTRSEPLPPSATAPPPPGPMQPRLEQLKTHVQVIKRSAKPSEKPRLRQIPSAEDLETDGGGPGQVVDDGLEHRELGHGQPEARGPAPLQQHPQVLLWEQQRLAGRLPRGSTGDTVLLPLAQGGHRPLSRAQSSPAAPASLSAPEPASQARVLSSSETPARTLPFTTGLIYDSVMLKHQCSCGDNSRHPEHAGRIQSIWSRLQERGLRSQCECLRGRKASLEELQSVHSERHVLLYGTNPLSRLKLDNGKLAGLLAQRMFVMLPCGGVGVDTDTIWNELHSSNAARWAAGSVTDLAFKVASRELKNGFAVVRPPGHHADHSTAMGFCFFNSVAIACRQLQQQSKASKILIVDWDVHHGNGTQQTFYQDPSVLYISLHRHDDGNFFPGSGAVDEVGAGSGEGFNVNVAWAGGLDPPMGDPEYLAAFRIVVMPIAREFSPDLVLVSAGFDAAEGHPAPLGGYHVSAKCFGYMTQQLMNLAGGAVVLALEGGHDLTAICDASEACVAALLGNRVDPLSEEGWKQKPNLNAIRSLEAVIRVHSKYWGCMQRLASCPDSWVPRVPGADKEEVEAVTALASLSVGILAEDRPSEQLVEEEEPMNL
The data set is described as follows: HDAC inhibition assay, HDAC7.

The next data set concerns the target HDAC9 (Homo sapiens, UniProt Q9UKV0). In words: HDAC inhibition assay, HDAC9.
For the next data set, the target named is T2, HDAC6 (Homo sapiens, UniProt Q9UBN7).
T2 sequence (Q9UBN7 1-1215): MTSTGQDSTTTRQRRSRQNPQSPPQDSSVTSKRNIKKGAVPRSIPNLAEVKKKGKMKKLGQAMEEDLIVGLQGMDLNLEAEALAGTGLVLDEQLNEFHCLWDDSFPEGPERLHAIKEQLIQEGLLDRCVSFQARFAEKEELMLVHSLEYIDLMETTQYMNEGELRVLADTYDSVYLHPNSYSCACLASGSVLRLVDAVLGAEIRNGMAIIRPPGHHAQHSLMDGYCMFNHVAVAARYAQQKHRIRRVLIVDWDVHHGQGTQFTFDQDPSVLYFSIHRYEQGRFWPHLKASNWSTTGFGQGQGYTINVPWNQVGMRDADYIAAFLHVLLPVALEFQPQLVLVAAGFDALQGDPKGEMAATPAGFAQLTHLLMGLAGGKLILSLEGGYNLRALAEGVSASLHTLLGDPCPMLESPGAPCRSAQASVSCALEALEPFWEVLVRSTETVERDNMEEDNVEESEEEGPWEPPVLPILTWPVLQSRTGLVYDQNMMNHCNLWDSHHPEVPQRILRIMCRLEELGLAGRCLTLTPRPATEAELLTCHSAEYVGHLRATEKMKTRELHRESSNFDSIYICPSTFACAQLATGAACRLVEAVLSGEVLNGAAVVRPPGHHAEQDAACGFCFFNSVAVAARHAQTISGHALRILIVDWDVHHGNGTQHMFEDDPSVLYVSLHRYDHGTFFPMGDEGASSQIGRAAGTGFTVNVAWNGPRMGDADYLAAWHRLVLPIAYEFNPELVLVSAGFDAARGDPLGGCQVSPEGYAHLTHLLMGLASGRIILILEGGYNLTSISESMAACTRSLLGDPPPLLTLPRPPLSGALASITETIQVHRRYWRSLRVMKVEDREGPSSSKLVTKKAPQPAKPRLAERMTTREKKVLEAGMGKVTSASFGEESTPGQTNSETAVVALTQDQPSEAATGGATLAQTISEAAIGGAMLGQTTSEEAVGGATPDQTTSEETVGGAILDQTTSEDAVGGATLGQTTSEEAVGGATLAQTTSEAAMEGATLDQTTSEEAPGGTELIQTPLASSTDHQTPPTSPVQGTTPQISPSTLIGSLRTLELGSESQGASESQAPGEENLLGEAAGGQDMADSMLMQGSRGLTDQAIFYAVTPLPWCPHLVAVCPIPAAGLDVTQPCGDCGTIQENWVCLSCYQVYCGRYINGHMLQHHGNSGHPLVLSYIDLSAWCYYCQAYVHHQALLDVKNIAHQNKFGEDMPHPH
In words: HDAC inhibition assay, HDAC6.

A further data set relates to HeLa nuclear HDACs. In words: HDAC inhibition assay, HeLa nuclear extract (mixture of class I HDACs 1, 2, and 3). To be noted: read-out: IC50 HeLa nuclear HDACs, Boc-Lys-(AMC) substrate.

SMILES strings stand for the structures. Read-outs that look alike come from different tables or passages of the source. A value given as a limit tells only on which side of the number the result lay.

Chain of HDAC4 (P56524 whole entry): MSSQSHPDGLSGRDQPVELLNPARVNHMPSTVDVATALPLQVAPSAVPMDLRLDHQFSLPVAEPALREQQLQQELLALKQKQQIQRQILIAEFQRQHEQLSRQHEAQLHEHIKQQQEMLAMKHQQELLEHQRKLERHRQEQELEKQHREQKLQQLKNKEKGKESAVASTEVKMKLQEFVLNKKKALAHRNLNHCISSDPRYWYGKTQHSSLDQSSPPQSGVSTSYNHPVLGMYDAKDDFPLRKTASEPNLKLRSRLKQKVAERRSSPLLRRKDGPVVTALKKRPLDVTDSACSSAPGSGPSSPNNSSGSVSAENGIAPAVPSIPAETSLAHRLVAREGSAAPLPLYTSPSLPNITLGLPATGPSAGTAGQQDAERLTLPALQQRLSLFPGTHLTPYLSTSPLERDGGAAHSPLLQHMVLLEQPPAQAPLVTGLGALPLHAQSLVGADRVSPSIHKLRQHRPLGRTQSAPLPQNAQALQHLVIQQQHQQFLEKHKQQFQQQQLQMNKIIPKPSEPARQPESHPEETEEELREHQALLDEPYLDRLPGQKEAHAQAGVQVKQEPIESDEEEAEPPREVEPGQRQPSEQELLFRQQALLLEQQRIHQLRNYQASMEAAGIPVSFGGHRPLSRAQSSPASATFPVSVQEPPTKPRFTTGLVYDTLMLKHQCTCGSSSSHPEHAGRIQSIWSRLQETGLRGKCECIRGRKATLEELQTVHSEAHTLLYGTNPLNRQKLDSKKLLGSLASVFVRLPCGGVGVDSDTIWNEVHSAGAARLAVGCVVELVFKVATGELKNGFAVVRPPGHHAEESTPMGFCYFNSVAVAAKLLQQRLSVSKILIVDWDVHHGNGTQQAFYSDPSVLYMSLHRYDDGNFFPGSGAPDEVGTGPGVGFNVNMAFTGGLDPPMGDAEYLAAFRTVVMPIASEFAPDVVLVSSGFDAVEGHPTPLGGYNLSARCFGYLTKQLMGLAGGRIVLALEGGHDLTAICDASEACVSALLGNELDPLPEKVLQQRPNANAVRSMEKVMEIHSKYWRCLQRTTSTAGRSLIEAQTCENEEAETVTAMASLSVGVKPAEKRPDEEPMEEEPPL
Chain of HDAC9 (Q9UKV0 whole entry): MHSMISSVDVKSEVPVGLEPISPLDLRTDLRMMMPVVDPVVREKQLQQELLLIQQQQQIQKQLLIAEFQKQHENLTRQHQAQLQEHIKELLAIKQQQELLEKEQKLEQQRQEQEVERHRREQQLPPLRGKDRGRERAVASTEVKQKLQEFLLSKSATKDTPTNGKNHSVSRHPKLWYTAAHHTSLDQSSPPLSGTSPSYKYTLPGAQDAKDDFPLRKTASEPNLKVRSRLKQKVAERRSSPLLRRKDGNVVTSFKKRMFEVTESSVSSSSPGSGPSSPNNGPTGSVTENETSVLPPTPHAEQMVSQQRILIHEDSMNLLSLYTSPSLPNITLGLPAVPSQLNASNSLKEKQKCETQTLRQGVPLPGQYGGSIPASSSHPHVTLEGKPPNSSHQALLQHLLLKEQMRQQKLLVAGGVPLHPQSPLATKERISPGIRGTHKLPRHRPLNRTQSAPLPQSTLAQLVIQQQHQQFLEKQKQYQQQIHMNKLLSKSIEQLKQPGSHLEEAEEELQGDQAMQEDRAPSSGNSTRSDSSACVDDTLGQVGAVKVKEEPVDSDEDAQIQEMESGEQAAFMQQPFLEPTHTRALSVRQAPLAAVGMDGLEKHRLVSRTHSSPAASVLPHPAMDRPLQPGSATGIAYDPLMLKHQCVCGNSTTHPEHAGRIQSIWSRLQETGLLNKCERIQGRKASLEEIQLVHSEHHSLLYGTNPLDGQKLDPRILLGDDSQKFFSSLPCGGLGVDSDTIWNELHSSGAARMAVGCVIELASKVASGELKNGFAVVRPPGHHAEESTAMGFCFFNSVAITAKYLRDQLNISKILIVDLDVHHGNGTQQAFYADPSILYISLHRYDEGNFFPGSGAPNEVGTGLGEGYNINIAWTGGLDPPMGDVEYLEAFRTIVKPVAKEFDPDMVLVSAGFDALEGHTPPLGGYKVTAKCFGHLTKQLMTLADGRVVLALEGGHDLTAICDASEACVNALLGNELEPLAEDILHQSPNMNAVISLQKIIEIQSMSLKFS

In general, IC50 refers to the point on the concentration scale where inhibition reaches its midpoint. Take `O=C(NO)c1ccc(CN2c3ccccc3Sc3ccccc32)cc1-c1ccccc1` [Compound 7a, N-Hydroxy-4-[(10H-phenothiazin-10-yl)methyl]-2-phenylbenzamide]: the IC50 with SCC2095 cells (Homo sapiens) was 3.9 µM; at HDAC4, 480 ± 40 nM; on HDAC7, 710 ± 10 nM; on HDAC9, 420 ± 60 nM; against HDAC6, 3.2 ± 0.77 µM; in the data set on HeLa nuclear HDACs, more than 40 µM.
As to `O=C(NO)c1ccc(CN2c3ccccc3Sc3ccc(Cl)cc32)cc1-c1ccccc1` [Compound 7b, N-Hydroxy-4-[(2-chloro-10H-phenothiazin-10-yl)methyl]-2-phenylbenzamide], the IC50 is 5 µM in the data set on SCC2095 cells (Homo sapiens); 280 ± 30 nM against HDAC4; 230 ± 20 nM against HDAC7; 200 ± 10 nM against HDAC9; 2.12 ± 0.37 µM against HDAC6; more than 40 µM in the data set on HeLa nuclear HDACs.
`O=C(NO)c1ccc(CN2c3ccccc3Sc3ccc(C(F)(F)F)cc32)cc1-c1ccccc1` [Compound 7c, N-Hydroxy-4-{[2-(trifluoromethyl)-10H-phenothiazin-10-yl]methyl}-2-phenylbenzamide]: the IC50 in the data set on SCC2095 cells (Homo sapiens) was 6 µM; against HDAC4, 280 ± 40 nM; against HDAC7, 230 ± 50 nM; against HDAC9, 270 ± 20 nM; against HDAC6, 3.19 ± 0.11 µM; in the data set on HeLa nuclear HDACs, more than 40 µM.
For `COc1ccc2c(c1)N(Cc1ccc(C(=O)NO)c(-c3ccccc3)c1)c1ccccc1S2` [Compound 7d, N-Hydroxy-4-[(2-methoxy-10H-phenothiazin-10-yl)methyl]-2-phenylbenzamide], the half-maximal inhibitory concentration (IC50) is 3.2 µM with SCC2095 cells (Homo sapiens); 800 ± 10 nM on HDAC4; 710 ± 120 nM on HDAC7; 640 ± 80 nM on HDAC9; 3.68 ± 0.41 µM on HDAC6; more than 40 µM with HeLa nuclear HDACs.
`CC(=NO)c1ccc2c(c1)N(Cc1ccc(C(=O)NO)c(-c3ccccc3)c1)c1ccccc1S2` [Compound 7f, N-Hydroxy-4-{2-[1-(hydroxyimino)ethyl]-10H-phenothiazin-10-yl}methyl-2-phenylbenzamide]: the half-inhibitory concentration (IC50) is 4.6 µM with SCC2095 cells (Homo sapiens); 580 ± 70 nM on HDAC4; 410 ± 20 nM at HDAC7; 320 ± 70 nM on HDAC9; 1.61 ± 0.09 µM against HDAC6; more than 40 µM in the data set with HeLa nuclear HDACs.
Regarding `NC(=O)c1ccc2c(c1)N(Cc1ccc(C(=O)NO)c(-c3ccccc3)c1)c1ccccc1S2` [Compound 7h], the half-inhibitory concentration (IC50) was 3.6 µM with SCC2095 cells (Homo sapiens); 200 ± 50 nM on HDAC4; 160 ± 10 nM against HDAC7; 110 ± 10 nM on HDAC9; 0.75 ± 0.06 µM against HDAC6; more than 40 µM in the data set with HeLa nuclear HDACs. In addition, the “HDAC6 inhibitory activity, fold less potent than LH4f” value on HDAC6 (versus LH4f) amounted to 150 fold.
On to `O=C(NO)c1ccc(CNC23CC4CC(CC(C4)C2)C3)cc1-c1ccccc1` [Compound 7i, N-Hydroxy-4-[(adamantan-1-ylamino)methyl]-2-phenylbenzamide], for which the concentration for half-maximal inhibition (IC50) with SCC2095 cells (Homo sapiens) is more than 10 µM; at HDAC4, 18700 ± 2160 nM; on HDAC7, 12900 ± 2140 nM; at HDAC9, 23700 ± 4140 nM; at HDAC6, more than 40 µM; in the data set with HeLa nuclear HDACs, more than 40 µM.
As to `O=C(NO)c1ccc(CN2CCCc3ccccc3C2)cc1-c1ccccc1` [Compound 7j, N-Hydroxy-4-[(1,3,4,5-tetrahydro-2H-benzo[c]azepin-2-yl)methyl]-2-phenylbenzamide], the IC50 with SCC2095 cells (Homo sapiens) was more than 10 µM; against HDAC4, 910 ± 70 nM; at HDAC7 it was 840 ± 30 nM; against HDAC9, 950 ± 50 nM; at HDAC6 it was 18.22 ± 0.02 µM; in the data set with HeLa nuclear HDACs, more than 40 µM.
Regarding `COc1cc(-c2cc(CN3c4ccccc4Sc4ccc(C#N)cc43)ccc2C(=O)NO)cc(OC)c1OC` [Compound 19a, N-Hydroxy-4-[(2-cyano-10H-phenothiazin-10-yl)methyl]-2–(3,4,5-trimethoxyphenyl)benzamide], the IC50 in the data set on SCC2095 cells (Homo sapiens) was 7.6 µM; on HDAC4 it was more than 40000 nM; against HDAC7, 17900 ± 920 nM; against HDAC9, 18600 ± 960 nM; against HDAC6, 7.6 ± 0.36 µM; in the data set with HeLa nuclear HDACs, more than 40 µM.
With `COc1ccc(-c2cc(CN3c4ccccc4Sc4ccc(C#N)cc43)ccc2C(=O)NO)cc1` [Compound 19b, N-Hydroxy-4-[(2-cyano-10H-phenothiazin-10-yl)methyl]-2–(4-methoxyphenyl)benzamide], the 50% inhibitory concentration (IC50) in the data set with SCC2095 cells (Homo sapiens) is 1.8 µM; against HDAC4, 6280 ± 130 nM; against HDAC7 it was 4030 ± 160 nM; against HDAC9, 5340 ± 400 nM; against HDAC6, 4.03 ± 0.25 µM; in the data set with HeLa nuclear HDACs, more than 40 µM.
In the case of `N#Cc1ccc2c(c1)N(Cc1ccc(C(=O)NO)c(-c3ccc(F)cc3)c1)c1ccccc1S2` [Compound 19c, N-Hydroxy-4-[(2-cyano-10H-phenothiazin-10-yl)methyl]-2–(4-fluorophenyl)benzamide], the IC50 with SCC2095 cells (Homo sapiens) is 2.6 µM; at HDAC4, 1000 ± 30 nM; against HDAC7, 540 ± 60 nM; against HDAC9, 720 ± 30 nM; against HDAC6, 4.22 ± 0.18 µM; with HeLa nuclear HDACs, more than 40 µM.
`COc1cc([C@@H]2c3cc4c(cc3[C@@H](O[C@@H]3O[C@@H]5CO[C@@H](C)O[C@H]5[C@H](O)[C@H]3O)[C@H]3COC(=O)[C@H]23)OCO4)cc(OC)c1O` [Etoposide, reference compound]: the 50% inhibitory concentration (IC50) is 3.3 ± 0.5 µM with SCC2095 cells (Homo sapiens) and 2.3 µM with SCC2095 cells.
